Patent US12595255B2, “Heteroaryl-substituted imidazole derivatives” (Hoffmann-La Roche Inc., priority 2021, dated 2026)

System: Acinetobacter baumannii ATCC17961
Test: Antimicrobial susceptibility testing: 90% growth inhibitory concentration (IC90) determination
Type: cell-based
Details: ATCC17961, 90% growth inhibitory concentration, Iso-Sensitest broth, OD 600 nm over 16 h, 35±2° C., read-out: ATCC 17961 IC90
Procedure: Assay Procedures Antimicrobial Susceptibility Testing: 90% Growth Inhibitory Concentration (IC90) Determination
The in vitro antimicrobial activity of the compounds was determined according to the following procedure:
The assay used a 10-points Iso-Sensitest broth medium to measure quantitatively the in vitro activity of the compounds against Acinetobacter baumannii ATCC17961.
Stock compounds in DMSO were serially twofold diluted (e.g. range from 50 to 0.097 μM final concentration) in 384 wells microtiter plates and inoculated with 49 μl the bacterial suspension in Iso-Sensitest medium to have a final cell concentration of ˜5×10^5 CFU/ml in a final volume/well of 50 μl/well. Microtiter plates were incubated at 35±2° C.
Bacterial cell growth was determined with the measurement of optical density at λ=600 nm each 20 minutes over a time course of 16 h. Growth inhibition was calculated during the logarithmic growth of the bacterial cells with determination of the concentration inhibiting 50% (IC50) and 90% (IC90) of the growth.
Table 1 provides the 90% growth inhibitory concentrations (IC90) in micromoles per liter of the compounds of present invention obtained against the strain Acinetobacter baumannii ATCC17961.

Structure (SMILES)	IC90 [nM]
CN(C)c1ccc(-c2cnc(C(=O)Nc3ccc(C(=O)N4CCN(C(=O)C5CCNCC5)CC4)c(Cl)c3)n2C)c(C(F)(F)F)n1 [Example A6, N-[3-chloro-4-[4-(piperidine-4-carbonyl)piperazine-1-carbonyl]phenyl]-5-[6-(dimethylamino)-2-(trifluoromethyl)-3-pyridyl]-1-methyl-imidazole-2-carboxamide]	310
CN(C)c1nc(F)c(-c2cnc(C(=O)Nc3ccc(C(=O)N4CCN(C(=O)C5CCNC5)CC4)c(Cl)c3)n2C)cc1F (centres unmarked) [Example F4, N-[3-chloro-4-[4-(pyrrolidine-3-carbonyl)piperazine-1-carbonyl]phenyl]-5-[6-(dimethylamino)-2,5-difluoro-3-pyridyl]-1-methyl-imidazole-2-carboxamide]	740
COc1ncc(-c2cnc(C(=O)Nc3ccc(C(=O)N4CCN(C(=O)C5CCNCC5)CC4)c(Cl)c3)n2C)c(C(F)(F)F)n1 [Example A10, N-[3-chloro-4-[4-(piperidine-4-carbonyl)piperazine-1-carbonyl]phenyl]-5-[2-methoxy-4-(trifluoromethyl)pyrimidin-5-yl]-1-methyl-imidazole-2-carboxamide]	1400
COc1ccc(-c2cnc(C(=O)Nc3ccc(C(=O)N4CCN(C(=O)C5CCNCC5)CC4)c(Cl)c3)n2C)c(C(F)(F)F)n1 [Example A16, N-[3-chloro-4-[4-(piperidine-4-carbonyl)piperazine-1-carbonyl]phenyl]-5-[6-methoxy-2-(trifluoromethyl)-3-pyridyl]-1-methyl-imidazole-2-carboxamide]	280
CN(C)c1nc(F)c(-c2cnc(C(=O)Nc3ccc(C(=O)N4CCN(C(=O)C[C@@H]5CCNC5)CC4)c(Cl)c3)n2C)cc1F [Example F2, N-[3-chloro-4-[4-[2-[(3S)-pyrrolidin-3-yl]acetyl]piperazine-1-carbonyl]phenyl]-5-[6-(dimethylamino)-2,5-difluoro-3-pyridyl]-1-methyl-imidazole-2-carboxamide]	230
